Laboratory results as given in article PMC8182759, “Cryo-Electron Microscopy of Arabidopsis thaliana Phytochrome A in Its Pr State Reveals Head-to-Head Homodimeric Architecture” (Frontiers in Plant Science, 2021).

What was measured:
[1] = target: T1, AtphyA (Arabidopsis thaliana phytochrome A, full length) (Arabidopsis thaliana, UniProt P14712); assay: zinc-induced bilin fluorescence on denaturing gel; UV/vis absorbance and photoconversion; assay type: binding; details: covalent; bilin attached to a cysteine of the GAF domain; assembled during co-expression in E. coli with heme oxygenase/PcyA; purified at pH 8.0
T1 construct: gene PHYA; full length, residues 1-1122, C-terminal hexahistidine tag kept; E. coli BL21(DE3) LOBSTR, plasmid pDG388 co-expressing Synechocystis heme oxygenase and PcyA; homodimer (dimer/monomer mixture at pH 9.3)
T1 sequence (P14712 1-1122): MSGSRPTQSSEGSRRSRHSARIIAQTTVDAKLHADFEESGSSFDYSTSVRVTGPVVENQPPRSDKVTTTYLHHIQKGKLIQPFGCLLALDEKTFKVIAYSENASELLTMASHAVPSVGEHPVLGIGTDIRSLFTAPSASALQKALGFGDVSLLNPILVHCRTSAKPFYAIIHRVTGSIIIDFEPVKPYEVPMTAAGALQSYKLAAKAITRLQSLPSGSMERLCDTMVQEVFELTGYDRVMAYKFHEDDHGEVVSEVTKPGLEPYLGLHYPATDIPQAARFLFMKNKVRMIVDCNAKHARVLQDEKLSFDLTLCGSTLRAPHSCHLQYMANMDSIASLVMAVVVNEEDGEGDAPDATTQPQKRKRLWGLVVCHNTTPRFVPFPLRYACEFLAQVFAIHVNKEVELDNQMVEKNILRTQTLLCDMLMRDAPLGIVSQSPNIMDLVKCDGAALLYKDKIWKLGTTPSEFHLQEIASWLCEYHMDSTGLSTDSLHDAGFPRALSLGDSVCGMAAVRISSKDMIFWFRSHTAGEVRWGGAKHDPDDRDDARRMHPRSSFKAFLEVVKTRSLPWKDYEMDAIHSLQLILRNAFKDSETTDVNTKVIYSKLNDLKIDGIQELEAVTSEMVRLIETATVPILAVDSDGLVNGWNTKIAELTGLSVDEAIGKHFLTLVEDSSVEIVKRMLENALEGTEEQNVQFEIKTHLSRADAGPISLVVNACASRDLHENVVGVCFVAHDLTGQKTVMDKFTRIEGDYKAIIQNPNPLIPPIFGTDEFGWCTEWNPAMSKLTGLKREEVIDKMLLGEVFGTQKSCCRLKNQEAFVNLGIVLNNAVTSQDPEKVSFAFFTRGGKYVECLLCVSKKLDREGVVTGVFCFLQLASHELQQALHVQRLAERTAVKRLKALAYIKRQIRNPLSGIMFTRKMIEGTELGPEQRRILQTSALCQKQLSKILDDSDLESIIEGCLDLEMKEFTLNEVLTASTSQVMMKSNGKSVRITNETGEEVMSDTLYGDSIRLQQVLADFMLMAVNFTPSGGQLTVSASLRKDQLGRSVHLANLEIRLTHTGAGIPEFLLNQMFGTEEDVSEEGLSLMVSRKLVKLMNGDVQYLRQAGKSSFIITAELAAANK

[2] = target: the molecule itself; assay: cryo-EM structure; single-particle cryo-EM of AtphyA purified at pH 9.3, Pr state (730 nm pre-illumination), 1-1.5 mg/ml, 136,173 particles, refinement with 2-fold symmetry, ~17 Å

Row | Molecule | zinc-induced bilin fluorescence on denaturing gel; UV/vis absorbance and photoco [1] | stoichiometry N [2]
1 | C/C=C1/C(=C/c2[nH]c(/C=C3N=C(/C=C4\NC(=O)C(CC)=C4C)C(C)=C\3CCC(=O)O)c(CCC(=O)O)c2C)NC(=O)[C@@H]1C [phycocyanobilin] | full-length AtphyA could be obtained with covalently attached PCB, as detected by zinc-induced bilin fluorescence | –
2 | Arabidopsis thaliana phytochrome A (receptor, UniProt P14712 1-1122, looked up, covalently attached phycocyanobilin (PCB) chromophore, Studied in the Pr state after 730 nm illumination; A plasmid map of pDG388 is in the Supplementary Material; No removal of the His tag is described; also called AtphyA; phyA; source: E. coli BL21(DE3) LOBSTR, purified (Ni-NTA IMAC, SEC), coexpressed with Synechocystis sp. heme oxygenase and PcyA) MSGSRPTQSSEGSRRSRHSARIIAQTTVDAKLHADFEESGSSFDYSTSVRVTGPVVENQPPRSDKVTTTYLHHIQKGKLIQPFGCLLALDEKTFKVIAYSENASELLTMASHAVPSVGEHPVLGIGTDIRSLFTAPSASALQKALGFGDVSLLNPILVHCRTSAKPFYAIIHRVTGSIIIDFEPVKPYEVPMTAAGALQSYKLAAKAITRLQSLPSGSMERLCDTMVQEVFELTGYDRVMAYKFHEDDHGEVVSEVTKPGLEPYLGLHYPATDIPQAARFLFMKNKVRMIVDCNAKHARVLQDEKLSFDLTLCGSTLRAPHSCHLQYMANMDSIASLVMAVVVNEEDGEGDAPDATTQPQKRKRLWGLVVCHNTTPRFVPFPLRYACEFLAQVFAIHVNKEVELDNQMVEKNILRTQTLLCDMLMRDAPLGIVSQSPNIMDLVKCDGAALLYKDKIWKLGTTPSEFHLQEIASWLCEYHMDSTGLSTDSLHDAGFPRALSLGDSVCGMAAVRISSKDMIFWFRSHTAGEVRWGGAKHDPDDRDDARRMHPRSSFKAFLEVVKTRSLPWKDYEMDAIHSLQLILRNAFKDSETTDVNTKVIYSKLNDLKIDGIQELEAVTSEMVRLIETATVPILAVDSDGLVNGWNTKIAELTGLSVDEAIGKHFLTLVEDSSVEIVKRMLENALEGTEEQNVQFEIKTHLSRADAGPISLVVNACASRDLHENVVGVCFVAHDLTGQKTVMDKFTRIEGDYKAIIQNPNPLIPPIFGTDEFGWCTEWNPAMSKLTGLKREEVIDKMLLGEVFGTQKSCCRLKNQEAFVNLGIVLNNAVTSQDPEKVSFAFFTRGGKYVECLLCVSKKLDREGVVTGVFCFLQLASHELQQALHVQRLAERTAVKRLKALAYIKRQIRNPLSGIMFTRKMIEGTELGPEQRRILQTSALCQKQLSKILDDSDLESIIEGCLDLEMKEFTLNEVLTASTSQVMMKSNGKSVRITNETGEEVMSDTLYGDSIRLQQVLADFMLMAVNFTPSGGQLTVSASLRKDQLGRSVHLANLEIRLTHTGAGIPEFLLNQMFGTEEDVSEEGLSLMVSRKLVKLMNGDVQYLRQAGKSSFIITAELAAANK | – | 2
